In patent US11117900B2 (Vertex Pharmaceuticals Incorporated, priority 2012, dated 2021):

These compounds were tested on HCT116 colorectal cancer cells (assay: Cisplatin sensitization assay (96 h MTS cell viability)). Conditions: Cisplatin sensitization value.
Assay type: cell-based
Method in brief: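 HCT116 cells were dosed simultaneously with compound and cisplatin as a full matrix of 2-fold serial dilutions from 10 μM top final concentration. Incubation was 96 h at 37° C., 5% CO2, followed by 1 h with MTS reagent for the viability read-out. Sensitization values were binned into +++, ++ and + categories.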
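Further: compound concentration needed to lower the IC50 of Cisplatin alone by a set fold.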

Row | Structure (SMILES) | Cisplatin Sensitization Assay
1 | Nc1nn2cc(F)cnc2c1C(=O)Nc1cncc(F)c1N1CCC(C(=O)N2CCC(N3CCC3)CC2)CC1 [I-G-68, 2-amino-N-(4-(4-(4-(azetidin-1-yl)piperidine-1-carbonyl)piperidin-1-yl)-5-fluoropyridin-3-yl)-6-fluoropyrazolo[1,5-a]pyrimidine-3-carboxamide] | +++ (Compounds with a Cisplatin sensitization value of <0.02 μM are marked with “+++.”)
2 | Nc1nn2cc(F)cnc2c1C(=O)Nc1cncc(Cl)c1N1CCC(C(=O)N2CCN3CCC2C3)CC1 (stereo not drawn) [I-G-69, N-(4-(4-(1,4-diazabicyclo[3.2.1]octane-4-carbonyl)piperidin-1-yl)-5-chloropyridin-3-yl)-2-amino-6-fluoropyrazolo[1,5-a]pyrimidine-3-carboxamide] | +++ (Compounds with a Cisplatin sensitization value of <0.02 μM are marked with “+++.”)
3 | Nc1nn2cc(F)cnc2c1C(=O)Nc1cncc(F)c1N1CCC(C(=O)N2CC3(COC3)C2)CC1 [I-G-72, N-(4-(4-(2-oxa-6-azaspiro[3.3]heptane-6-carbonyl)piperidin-1-yl)-5-fluoropyridin-3-yl)-2-amino-6-fluoropyrazolo[1,5-a]pyrimidine-3-carboxamide] | +++ (Compounds with a Cisplatin sensitization value of <0.02 μM are marked with “+++.”)
4 | Nc1nn2cc(F)cnc2c1C(=O)Nc1cncc(F)c1N1CCC(C(=O)N2CC(F)(F)C2)CC1 [I-G-73, 2-amino-N-(4-(4-(3,3-difluoroazetidine-1-carbonyl)piperidin-1-yl)-5-fluoropyridin-3-yl)-6-fluoropyrazolo[1,5-a]pyrimidine-3-carboxamide] | +++ (Compounds with a Cisplatin sensitization value of <0.02 μM are marked with “+++.”)
5 | Nc1nn2cc(F)cnc2c1C(=O)Nc1cncc(F)c1N1CCC(C(=O)N2CC(F)C2)CC1 [I-G-74, 2-amino-6-fluoro-N-(5-fluoro-4-(4-(3-fluoroazetidine-1-carbonyl)piperidin-1-yl)pyridin-3-yl)pyrazolo[1,5-a]pyrimidine-3-carboxamide] | +++ (Compounds with a Cisplatin sensitization value of <0.02 μM are marked with “+++.”)
6 | COC1(C)CN(C(=O)C2CCN(c3c(F)cncc3NC(=O)c3c(N)nn4cc(F)cnc34)CC2)C1 [I-G-75, 2-amino-6-fluoro-N-(5-fluoro-4-(4-(3-methoxy-3-methylazetidine-1-carbonyl)piperidin-1-yl)pyridin-3-yl)pyrazolo[1,5-a]pyrimidine-3-carboxamide] | +++ (Compounds with a Cisplatin sensitization value of <0.02 μM are marked with “+++.”)
7 | N#CC1CN(C(=O)C2CCN(c3c(F)cncc3NC(=O)c3c(N)nn4cc(F)cnc34)CC2)C1 [I-G-76, 2-amino-N-(4-(4-(3-cyanoazetidine-1-carbonyl)piperidin-1-yl)-5-fluoropyridin-3-yl)-6-fluoropyrazolo[1,5-a]pyrimidine-3-carboxamide] | +++ (Compounds with a Cisplatin sensitization value of <0.02 μM are marked with “+++.”)
8 | Nc1nn2cc(F)cnc2c1C(=O)Nc1cnccc1N1CCC(C(=O)N2CCC2)CC1 [I-G-77, 2-amino-N-(4-(4-(azetidine-1-carbonyl)piperidin-1-yl)pyridin-3-yl)-6-fluoropyrazolo[1,5-a]pyrimidine-3-carboxamide] | +++ (Compounds with a Cisplatin sensitization value of <0.02 μM are marked with “+++.”)
9 | COC1CN(C(=O)C2CCN(c3ccncc3NC(=O)c3c(N)nn4cc(F)cnc34)CC2)C1 [I-G-78, 2-amino-6-fluoro-N-(4-(4-(3-methoxyazetidine-1-carbonyl)piperidin-1-yl)pyridin-3-yl)pyrazolo[1,5-a]pyrimidine-3-carboxamide] | +++ (Compounds with a Cisplatin sensitization value of <0.02 μM are marked with “+++.”)
10 | COC1(C)CN(C(=O)C2CCN(c3ccncc3NC(=O)c3c(N)nn4cc(F)cnc34)CC2)C1 [I-G-79, 2-amino-6-fluoro-N-(4-(4-(3-methoxy-3-methylazetidine-1-carbonyl)piperidin-1-yl)pyridin-3-yl)pyrazolo[1,5-a]pyrimidine-3-carboxamide] | +++ (Compounds with a Cisplatin sensitization value of <0.02 μM are marked with “+++.”)
11 | Nc1nn2cc(F)cnc2c1C(=O)Nc1cnccc1N1CCC(C(=O)N2CC(F)(F)C2)CC1 [I-G-80, 2-amino-N-(4-(4-(3,3-difluoroazetidine-1-carbonyl)piperidin-1-yl)pyridin-3-yl)-6-fluoropyrazolo[1,5-a]pyrimidine-3-carboxamide] | +++ (Compounds with a Cisplatin sensitization value of <0.02 μM are marked with “+++.”)
12 | N#CC1CN(C(=O)C2CCN(c3ccncc3NC(=O)c3c(N)nn4cc(F)cnc34)CC2)C1 [I-G-81, 2-amino-N-(4-(4-(3-cyanoazetidine-1-carbonyl)piperidin-1-yl)pyridin-3-yl)-6-fluoropyrazolo[1,5-a]pyrimidine-3-carboxamide] | +++ (Compounds with a Cisplatin sensitization value of <0.02 μM are marked with “+++.”)
13 | Nc1nn2cc(F)cnc2c1C(=O)Nc1cnccc1N1CCC(C(=O)N2CC(F)C2)CC1 [I-G-82, 2-amino-6-fluoro-N-(4-(4-(3-fluoroazetidine-1-carbonyl)piperidin-1-yl)pyridin-3-yl)pyrazolo[1,5-a]pyrimidine-3-carboxamide] | +++ (Compounds with a Cisplatin sensitization value of <0.02 μM are marked with “+++.”)
14 | Nc1nn2cc(F)cnc2c1C(=O)Nc1cnccc1N1CCC(C(=O)N2CCCC2)CC1 [I-G-83, 2-amino-6-fluoro-N-(4-(4-(pyrrolidine-1-carbonyl)piperidin-1-yl)pyridin-3-yl)pyrazolo[1,5-a]pyrimidine-3-carboxamide] | +++ (Compounds with a Cisplatin sensitization value of <0.02 μM are marked with “+++.”)
15 | Nc1nn2cc(F)cnc2c1C(=O)Nc1cnccc1N1CCC(C(=O)N2CCC3(COC3)C2)CC1 [I-G-84, N-(4-(4-(2-oxa-6-azaspiro[3.4]octane-6-carbonyl)piperidin-1-yl)pyridin-3-yl)-2-amino-6-fluoropyrazolo[1,5-a]pyrimidine-3-carboxamide] | +++ (Compounds with a Cisplatin sensitization value of <0.02 μM are marked with “+++.”)
16 | Nc1nn2cc(F)cnc2c1C(=O)Nc1cnccc1N1CCC(C(=O)N2CCOCC2)CC1 [I-G-85, 2-amino-6-fluoro-N-(4-(4-(morpholine-4-carbonyl)piperidin-1-yl)pyridin-3-yl)pyrazolo[1,5-a]pyrimidine-3-carboxamide] | +++ (Compounds with a Cisplatin sensitization value of <0.02 μM are marked with “+++.”)
17 | CS(=O)(=O)C1CN(C(=O)C2CCN(c3c(F)cncc3NC(=O)c3c(N)nn4cc(F)cnc34)CC2)C1 [I-G-86, 2-amino-6-fluoro-N-(5-fluoro-4-(4-(3-(methylsulfonyl)azetidine-1-carbonyl)piperidin-1-yl)pyridin-3-yl)pyrazolo[1,5-a]pyrimidine-3-carboxamide] | +++ (Compounds with a Cisplatin sensitization value of <0.02 μM are marked with “+++.”)
18 | Nc1nn2cc(Cl)cnc2c1C(=O)Nc1cncc(F)c1N1CCC(C(=O)N2CCN3CCC2CC3)CC1 [I-G-87, N-(4-(4-(1,4-diazabicyclo[3.2.2]nonane-4-carbonyl)piperidin-1-yl)-5-fluoropyridin-3-yl)-2-amino-6-chloropyrazolo[1,5-a]pyrimidine-3-carboxamide] | +++ (Compounds with a Cisplatin sensitization value of <0.02 μM are marked with “+++.”)
19 | Nc1nn2cc(F)cnc2c1C(=O)Nc1cnccc1N1CCC(C(=O)N2CC3(COC3)C2)CC1 [I-G-88, N-(4-(4-(2-oxa-6-azaspiro[3.3]heptane-6-carbonyl)piperidin-1-yl)pyridin-3-yl)-2-amino-6-fluoropyrazolo[1,5-a]pyrimidine-3-carboxamide] | +++ (Compounds with a Cisplatin sensitization value of <0.02 μM are marked with “+++.”)
20 | CS(=O)(=O)C1CN(C(=O)C2CCN(c3ccncc3NC(=O)c3c(N)nn4cc(F)cnc34)CC2)C1 [I-G-89, 2-amino-6-fluoro-N-(4-(4-(3-(methylsulfonyl)azetidine-1-carbonyl)piperidin-1-yl)pyridin-3-yl)pyrazolo[1,5-a]pyrimidine-3-carboxamide] | + (Compounds with a Cisplatin sensitization value >0.2 μM but <5 μM are marked with “+.”)
21 | Nc1nn2cc(F)cnc2c1C(=O)Nc1cnccc1N1CCC(C(=O)N2CC3(CCO3)C2)CC1 [I-G-90, N-(4-(4-(1-oxa-6-azaspiro[3.3]heptane-6-carbonyl)piperidin-1-yl)pyridin-3-yl)-2-amino-6-fluoropyrazolo[1,5-a]pyrimidine-3-carboxamide] | +++ (Compounds with a Cisplatin sensitization value of <0.02 μM are marked with “+++.”)
22 | CCOC1CN(C(=O)C2CCN(c3ccncc3NC(=O)c3c(N)nn4cc(F)cnc34)CC2)C1 [I-G-91, 2-amino-N-(4-(4-(3-ethoxyazetidine-1-carbonyl)piperidin-1-yl)pyridin-3-yl)-6-fluoropyrazolo[1,5-a]pyrimidine-3-carboxamide] | +++ (Compounds with a Cisplatin sensitization value of <0.02 μM are marked with “+++.”)
23 | CC1(N2CCN(C(=O)C3CCN(c4c(F)cncc4NC(=O)c4c(N)nn5cc(F)cnc45)CC3)CC2)COC1 [I-G-92, 2-amino-6-fluoro-N-(5-fluoro-4-(4-(4-(3-methyloxetan-3-yl)piperazine-1-carbonyl)piperidin-1-yl)pyridin-3-yl)pyrazolo[1,5-a]pyrimidine-3-carboxamide] | +++ (Compounds with a Cisplatin sensitization value of <0.02 μM are marked with “+++.”)
24 | CO[C@@H]1CCN(C(=O)C2CCN(c3ccncc3NC(=O)c3c(N)nn4cc(F)cnc34)CC2)C1 [I-G-93, (R)-2-amino-6-fluoro-N-(4-(4-(3-methoxypyrrolidine-1-carbonyl)piperidin-1-yl)pyridin-3-yl)pyrazolo[1,5-a]pyrimidine-3-carboxamide] | +++ (Compounds with a Cisplatin sensitization value of <0.02 μM are marked with “+++.”)
